From PMC3265452 (PLoS Neglected Tropical Diseases, 2012)
Structures can show the parent of a compound that is named as a salt.

Target: AaDOP2 (Aedes aegypti, UniProt H6D5H2)
Experiment: AaDOP2 antagonist screen of the LOPAC1280 library (HEK-CRELuc-Aadop2 cells, luminescence)
Format: cell-based
Details: not given

AaDOP2, sequence (H6D5H2 1-476): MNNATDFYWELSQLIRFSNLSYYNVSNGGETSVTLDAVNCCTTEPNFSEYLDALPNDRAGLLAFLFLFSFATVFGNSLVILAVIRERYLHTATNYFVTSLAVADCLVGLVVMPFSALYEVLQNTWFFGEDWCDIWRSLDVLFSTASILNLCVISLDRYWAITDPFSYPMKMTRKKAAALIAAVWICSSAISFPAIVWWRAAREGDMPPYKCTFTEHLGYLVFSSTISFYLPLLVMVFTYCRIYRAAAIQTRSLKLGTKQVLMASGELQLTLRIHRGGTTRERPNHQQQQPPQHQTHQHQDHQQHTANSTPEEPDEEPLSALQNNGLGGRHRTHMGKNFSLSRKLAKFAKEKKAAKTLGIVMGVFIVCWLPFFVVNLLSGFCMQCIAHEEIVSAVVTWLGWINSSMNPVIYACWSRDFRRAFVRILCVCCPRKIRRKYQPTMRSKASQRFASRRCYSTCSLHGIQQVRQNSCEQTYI

Compound	Compound effect (percent receptor signaling in presence of test compound, relative lux units relative to the SCH23390 control)
CN(C)CCCC1(c2ccc(F)cc2)OCc2cc(C#N)ccc21 (stereo not shown) [Compound 298, Citalopram hydrobromide]	90
Cl.NC1CCN(c2cccc(Cl)n2)CC1 [Compound 1083, SR 57227A]	100
Br.Oc1ccc(C2CNCc3sccc32)cc1O (stereo not shown) [Compound 1095, SKF 89626]	89
N[C@H]1CON=C1O [Compound 228, L-Cycloserine]	88
CCCC(=O)NCCc1c2n(c3ccc(OC)cc13)CCCc1ccccc1-2 [Compound 686, K 185]	80
COc1cc2nc(N3CCN(C(=O)C4CCCO4)CC3)nc(N)c2cc1OC (stereo not shown) [Compound 1178, Terazosin hydrochloride]	107
COc1cc(CC(C)N)c(OC)cc1I.Cl (racemic) [Compound 447, (±)-DOI hydrochloride]	86
OC[C@H]1NC[C@H](O)[C@@H](O)[C@@H]1O [Compound 429, 1-Deoxynojirimycin hydrochloride]	116
Oc1ccc(-c2nc(-c3ccncc3)c(-c3ccc(F)cc3)[nH]2)cc1 [Compound 178, SB 202190]	65
C[C@]12C=CC(=O)C=C1CC[C@H]1[C@@H]3C[C@@H](O)[C@](O)(C(=O)CO)[C@@]3(C)C[C@H](O)[C@@]12F [Compound 1190, Triamcinolone]	108
OC[C@H]1O[C@@H](n2cnc3c(Nc4ccccc4)ncnc32)[C@H](O)[C@@H]1O [Compound 1008, N6-Phenyladenosine]	99
COc1ccc(CCCOC(Cn2ccnc2)c2ccc(OC)cc2)cc1 (stereo not shown) [Compound 1110, SKF 96365]	68
[Cl-].[Li+] [Compound 589, Lithium Chloride]	86
C=CCc1ccccc1OCC(O)CNC1(C)CCC(C(C)(C)NC(=O)CBr)CC1 (stereo not shown) [Compound 198, Bromoacetyl alprenolol menthane]	87
O=C1Cc2c([nH]c3ccc(Br)cc23)-c2ccccc2N1 [Compound 689, Kenpaullone]	17
Cl.O=c1[nH]oc2c1CCNC2 [Compound 1220, THIP hydrochloride]	95
O=C(CCCN1CC=C(n2c(=O)[nH]c3ccccc32)CC1)c1ccc(F)cc1 [Compound 363, Droperidol]	58
Nc1ccn([C@H]2CC[C@@H](CO)O2)c(=O)n1 [Compound 396, 2',3'-dideoxycytidine]	102
NCCS(=O)O [Compound 578, Hypotaurine]	89
R(-)-Me5 [Compound 734]	93
COc1cc2ncnc(Nc3cccc(Cl)c3)c2cc1OC [Compound 1169, Tyrphostin AG 1478]	88
CC(=O)SCC[N+](C)(C)C.[Cl-] [Compound 62, Acetylthiocholine chloride]	122
Nc1cc(N2CCCCC2)nc(N)[n+]1[O-] [Compound 767, Minoxidil]	110
CNCCC(Oc1ccc(C(F)(F)F)cc1)c1ccccc1 (stereo not shown) [Compound 544, Fluoxetine hydrochloride]	118
Oc1ccc2c3c1O[C@H]1[C@@H](O)CC[C@@]4(O)[C@@H](C2)N(CC2CCC2)CC[C@]314 [Compound 853, Nalbuphine hydrochloride]	96
O=C(O)c1cc(=O)c2ccccc2[nH]1 [Compound 688, Kynurenic acid]	99
N[C@@H]1CON=C1O [Compound 250, D-Cycloserine]	91
Br.CCCN(CCC)[C@@H]1CCc2cccc(O)c2C1 [Compound 624, R-(+)-8-Hydroxy-DPAT hydrobromide]	89

Same assay, conditions: 10 µM compound, 300 nM dopamine, 2 hr; hit = compound effect <20

Compound	Compound effect (percent receptor signaling in presence of test compound, relative lux units relative to the SCH23390 control) [%]
Cl.O=C(O)C1=CCCN(CCON=C(c2ccccc2)c2ccccc2)C1 [Compound 880, NO-711 hydrochloride]	81
CN1CCN(c2ccc3ccccc3n2)CC1.O=C(O)/C=C\C(=O)O.O=C(O)/C=C\C(=O)O [Compound 1036, Quipazine, N-methyl-, dimaleate]	74
S-Nitroso-N-acetylpenicillamine [Compound 846]	88
COC(=O)[C@@H](N)CCCN=C(N)N[N+](=O)[O-].Cl [Compound 861, NG-Nitro-L-arginine methyl ester hydrochloride]	96
COC(=O)C(N)Cc1ccc(Cl)cc1.Cl (racemic) [Compound 248, DL-p-Chlorophenylalanine methyl ester hydrochloride]	71
Br.CCCN(CCC)C1CCc2cccc(O)c2C1 (racemic) [Compound 602, (±)-8-Hydroxy-DPAT hydrobromide]	102
NC(CCCP(=O)(O)O)C(=O)O (racemic) [Compound 58, (±)-2-Amino-5-phosphonopentanoic acid]	89
CCN(CC)C(=O)c1ccc(O)c(OC)c1 [Compound 470, Vanillic acid diethylamide]	101
COc1ccc(NC(=O)c2ccc(-c3ccc(-c4noc(C)n4)cc3C)cc2)cc1N1CCN(C)CC1.Cl [Compound 799, GR 127935 hydrochloride]	90
C[C@](N)(CCP(=O)(O)O)C(=O)O.Cl [Compound 781, (S)-MAP4 hydrochloride]	100
CN(C)CCCCSC(=N)N.Cl.Cl [Compound 1134, SKF 91488 dihydrochloride]	89

Same assay, conditions: read-out: % of the SCH23390 effect (percent inhibition of receptor response relative to the SCH23390 control)

Compound	inhibition at 10 µM [%]
O=C1Cc2c([nH]c3ccc(Br)cc23)-c2ccccc2N1 [Compound 689, Kenpaullone]	83
